Assay results: the supplement of paper PMC5908809

What was measured:
[1] = system: IMC-1 (IL-2 20 ng/mL); assay: percent inhibition of viability; higher = more inhibition; conditions: 72 h
[2] = system: SNK-6 (IL-2 2.5 ng/mL); assay: as above; conditions: 72 h
[3] = system: YT (IL-2 2.5 ng/mL); assay: as above; conditions: 72 h
[4] = system: KHYG-1 (IL-2 2.5 ng/mL); assay: as above; conditions: 72 h
[5] = system: NK-YS (IL-2 2.5 ng/mL); assay: as above; conditions: 72 h
[6] = system: normal primary NK cells, pool 2 (3 donors) (IL-2 2.5 ng/mL); assay: as above; conditions: 72 h
[7] = system: KAI3 (IL-2 2.5 ng/mL); assay: as above; conditions: 72 h
[8] = system: normal primary NK cells, pool 1 (3 donors), resting (IL-2 0 ng/mL); assay: as above; conditions: 72 h
[9] = system: NK-92 (IL-2 2.5 ng/mL); assay: as above; conditions: 72 h
[10] = system: NKL (IL-2 2.5 ng/mL); assay: as above; conditions: 72 h
[11] = system: normal primary NK cells, pool 1 (3 donors) (IL-2 2.5 ng/mL); assay: as above; conditions: 72 h
[12] = system: DERL-7 (IL-2 2.5 ng/mL); assay: as above; conditions: 72 h
[13] = system: normal primary NK cells, pool 3 (3 donors) (IL-2 2.5 ng/mL); assay: as above; conditions: 72 h
[14] = system: normal NK cells expanded with K562-aAPC; assay: drug sensitivity score (DSS) (DSS units); higher = more sensitive; extreme values may be limits of the assay; conditions: 72 h; IL-2 2.5 ng/mL
Experimental: (§1)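 Drug sensitivity and resistance testing on K562-aAPC-expanded normal NK cells: 5 concentrations (10-fold steps over a 10,000-fold range), 72 h at 37 °C, viability by CellTiter-Glo normalised to DMSO and benzethonium chloride controls; DSS from the fitted curve.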

[15] = system: normal NK cells expanded with K562-aAPC; assay: percent inhibition of viability; higher = more inhibition; conditions: 72 h, IL-2 2.5 ng/mL
Experimental: as §1

[16] = system: IMC-1 (IL-2 20 ng/mL); assay: drug sensitivity score (DSS) (DSS units); higher = more sensitive; extreme values may be limits of the assay; conditions: 72 h
[17] = system: SNK-6 (IL-2 2.5 ng/mL); assay: as above; conditions: 72 h
[18] = system: YT (IL-2 2.5 ng/mL); assay: as above; conditions: 72 h
[19] = system: KHYG-1 (IL-2 2.5 ng/mL); assay: as above; conditions: 72 h
[20] = system: NK-YS (IL-2 2.5 ng/mL); assay: as above; conditions: 72 h
[21] = system: normal primary NK cells, pool 2 (3 donors) (IL-2 2.5 ng/mL); assay: as above; conditions: 72 h
[22] = system: KAI3 (IL-2 2.5 ng/mL); assay: as above; conditions: 72 h
[23] = system: normal primary NK cells, pool 1 (3 donors), resting (IL-2 0 ng/mL); assay: as above; conditions: 72 h
[24] = system: NK-92 (IL-2 2.5 ng/mL); assay: as above; conditions: 72 h
[25] = system: NKL (IL-2 2.5 ng/mL); assay: as above; conditions: 72 h
[26] = system: normal primary NK cells, pool 1 (3 donors) (IL-2 2.5 ng/mL); assay: as above; conditions: 72 h
[27] = system: DERL-7 (IL-2 2.5 ng/mL); assay: as above; conditions: 72 h
[28] = system: normal primary NK cells, pool 3 (3 donors) (IL-2 2.5 ng/mL); assay: as above; conditions: 72 h

C[C@@H](Nc1cc(F)cc(F)c1)c1cc(C(=O)N(C)C)cc2c(=O)cc(N3CCOCC3)oc12 [AZD-8186] (max concentration tested 1000 nM)
percent inhibition of viability [%]
Conditions	0.1 nM	1 nM	10 nM	100 nM	1000 nM
[1]	-4.26	-2.05	-9.6	-12.9	-13.3
[2]	10	11.1	-10.9	-9.3	-17.3
[3]	-0.09	-4.44	-2.79	1.47	3.03
[4]	-0.98	-2.42	-2.86	0.88	-3.51
[5]	-5.07	-6.92	-2.82	-2.72	4.56
[6]	-10.7	-2.64	-11.3	-1.73	4.08
[7]	-2.99	1.77	1.66	8.81	5.34
[8]	3.9	-3.52	11.1	13.5	24.3
[9]	-5.14	-3.4	-6.34	7.87	29.8
[10]	-15.3	-13.8	-5.07	-8.33	-6.27
[11]	-5.02	-7	5.11	5.09	16.9
[12]	-0.61	-0.52	0.73	12.4	17.2
[13]	-6.84	-3.88	-7.48	-5.25	-2.65
[15]	-7	-2.1	-0.27	1.82	6.33

Conditions	drug sensitivity score
[14]	0
[16]	0
[17]	0
[18]	0
[19]	0
[20]	0
[21]	0
[22]	0
[23]	2.41
[24]	2.45
[25]	0
[26]	0.51
[27]	1.36
[28]	0

COC1=CC(c2cc3ccccc3[nH]2)=N/C1=C\c1[nH]c(C)cc1C [Obatoclax] (max concentration tested 10000 nM)
percent inhibition of viability [%]
Conditions	1 nM	10 nM	100 nM	1000 nM	10000 nM
[1]	-4.53	-1.62	-0.16	4.8	18.5
[2]	-0.44	6.97	-8.81	6.17	16.6
[3]	0.99	0.48	1.63	21.2	48.1
[4]	-3.69	-0.55	0.4	15.8	35.2
[5]	-4.05	-1.77	1.63	13.8	26.2
[6]	-4.7	-5.9	5.89	6.17	37.3
[7]	2.78	2.46	-1.6	14.8	41.8
[8]	-9.87	-1.78	-10.3	10	59
[9]	-5.85	7.72	16.4	50	77.5
[10]	-2.53	-11.6	25.5	67.5	84.2
[11]	-0.48	0.81	-4.45	6.95	39.1
[12]	-3.53	-2.23	2.25	2.35	36.5
[13]	-3.41	-11.5	3.42	9.76	34.5
[15]	0.42	2.59	3.2	6.46	21.2

Conditions	drug sensitivity score
[14]	1.2
[16]	1.04
[17]	0.94
[18]	5.06
[19]	3.67
[20]	2.34
[21]	2.84
[22]	4.2
[23]	4.87
[24]	11.6
[25]	15.6
[26]	3.07
[27]	2.1
[28]	2.91
